Values of other authors, collected in paper PMC4424193 (European journal of drug metabolism and pharmacokinetics, 2014).
Like-named read-outs stand apart in the source and are kept apart here.

How the values were obtained:
FAK = conditions: binding studies; ref Kurenova et al. 2013
[1] = rats, single intragastric 50 mg/kg in 2% starch suspension; ref Kaverina (1983)
[2] = ref Dirikolu (2009); for Cmax: horse serum
[3] = man, single oral 50 mg dose, 24 hr urine collections; ref Chung (1994)
[4] = rat, after 24 hrs; ref Yeh 1990
[5] = humans, ref Yeh et al. 1986; for Cmax: at 0.5 hrs post-dose
[6] = CD1 mice, 44.6 mg/kg IP C4 free base, ref Thudium 2011

CN(C)CCN(Cc1ccc(Cl)cc1)c1ccccn1 [C4, N-[(4-chlorophenyl)-methyl]-N-[2-(dimethylamino)-ethyl]-pyridin-2-amine]
C4 to FAK dissociation constant (Kd) (FAK): 0.165 µg/mL | plasma Cmax (mean) [6]: 820 ng/mL | time of peak plasma concentration [6]: 0.67 h | T½ (mice, 44.6 mg/kg free base IV dose, ref Thudium (2011)): 0.83 ± 0.34 h | 24 hr concentration (mice, 44.6 mg/kg free base, ref Thudium (2011)): 0 µg/mL | Bioavailability (mice, oral vs IP routes of administration, previously determined): 15.5% | Cmax (mouse IV, ref Thudium (2011)): 820 ng/mL | Cmax [1]: 370 ng/mL | T½ [1]: 14.9 h | serum concentration at 24 hrs (mean) [1]: 160 ± 10 ng/mL

COc1ccc(CN(CCN(C)C)c2ccccn2)cc1 [Pyrilamine, pyrilamine]
Cmax ([2]; IV 300 mg/horse, at 5 minutes): 280 ng/mL | Cmax ([2]; oral 300 mg/horse): 36.6 ng/mL | half-life (t½) ([2]; horse, IV 300 mg/horse): 1.67 h | detection in serum at 24 hrs ([2]; horse, either route of administration (IV, oral)): not detected | Tmax ([2]; horse, oral 300 mg/horse): 0.44 h | parent compound in urine [3]: no parent compound was observed in the urine

CN(C)CCN(Cc1ccccc1)c1ccccn1 [tripelennamine]
dose recovered unchanged in urine [4]: 2-3% | Cmax ([5]; 50 mg intramuscular): 105 ng/mL | t½ ([5]; 50 mg intramuscular): 2.9 ± 0.25 h | Cmax ([5]; 100 mg intramuscular): 194 ng/mL | t½ ([5]; 100 mg intramuscular): 4.4 ± 1.3 h
